In ChEMBL document CHEMBL1141035, “Synthesis and antidepressant activity of some 1,3,5-triphenyl-2-pyrazolines and 3-(2''-hydroxy naphthalen-1''-yl)-1,5-diphenyl-2-pyrazolines” (2005):
Several values for one entry are separate records, joined by “and”; a condition that tells them apart may be missing. Identical values can stand only once.

Columns and labels:
Mus musculus [1] = test: Antidepressant activity determined by duration of immobility after intraperitoneal administration at 100 mg/kg in mice; type: functional
Mus musculus [2] = test: Antidepressant activity determined by percentage change from control after intraperitoneal administration at 100 mg/kg in mice; n = 6; type: functional

| SMILES | Activity (Mus musculus [1]) [s] | Activity (Mus musculus [2]) [%] | Activity (Mus musculus [1]; 100 mg/kg) |
| --- | --- | --- | --- |
| CN(C)c1ccc(C2CC(c3ccccc3)=NN2c2ccccc2)cc1 (stereo unspecified) | 22.95 | -59.25 | – |
| Oc1ccc2ccccc2c1C1=NN(c2ccccc2)C(c2ccccc2)C1 (stereo unspecified) | 50.33 | -10.63 | – |
| COc1cc(C2CC(c3c(O)ccc4ccccc34)=NN2c2ccccc2)cc(OC)c1OC (stereo unspecified) | 49.26 | -12.53 | – |
| Oc1ccc(C2=NN(c3ccccc3)C(c3cccc(Br)c3)C2)cc1 (stereo unspecified) | 32.46 | -42.18 | – |
| CN(C)c1ccc(C2CC(c3ccccc3O)=NN2c2ccccc2)cc1 (stereo unspecified) | 35.85 | -36.34 | – |
| Cc1ccc(C2=NN(c3ccccc3)C(c3ccc(N(C)C)cc3)C2)cc1 (stereo unspecified) | 50.15 | -10.95 | – |
| Oc1ccc2ccccc2c1C1=NN(c2ccccc2)C(c2ccc(Br)cc2)C1 (stereo unspecified) | 25.4 | -54.1 | – |
| Oc1ccc2ccccc2c1C1=NN(c2ccccc2)C(c2ccc(Cl)cc2)C1 (stereo unspecified) | 46.28 | -17.82 | – |
| COc1ccc(C2CC(c3c(O)ccc4ccccc34)=NN2c2ccccc2)cc1 (stereo unspecified) | 50.78 | -9.83 | – |
| CN(C)c1ccc(C2CC(c3ccc(Br)cc3)=NN2c2ccccc2)cc1 (stereo unspecified) | 41.88 | -25.63 | – |
| CN(C)CCCN1c2ccccc2CCc2ccc(Cl)cc21 [CLOMIPRAMINE] | – | – | 33.81 s and 18.68 s |
